Measurements from ChEMBL document CHEMBL5729289, “JAK inhibitor and use thereof” (2022).

Key:
[1] = target: Tyrosine-protein kinase JAK1 (Homo sapiens, UniProt P23458); assay: (§1) In Vitro Activity Assay: JAK1 (h) was incubated with 20 mM Tris/HCl pH 7.5, 0.2 mM EDTA, 500 μM […], 10 mM magnesium acetate and [γ-33P]-ATP (activity and concentration were formulated as needed). Mg/ATP mixture was added to initiate the reaction. After incubating at room temperature for 40 minutes, the reaction mixture was added with 0.5% phosphoric acid to stop the reaction. Then 10 μL reaction solution was spotted on a P30 filter pad and washed with 0.425% phosphoric acid three times and methanol once over 4 minutes, dried, and counted scintillation.
[2] = target: Tyrosine-protein kinase JAK2 (Homo sapiens, UniProt O60674); assay: In Vitro Activity Assay: JAK2 (h) and 8 mM MOPS pH 7.0, 0.2 mM EDTA, 100M KTFCGTPEYLAPEVRREPRILSEEEQEMFRDFDYIADWC, 10 mM magnesium acetate and [γ-33P]-ATP (activity and concentration were formulated as needed) were incubated together. Mg/ATP mixture was added to initiate the reaction. After incubating at room temperature for 40 minutes, the reaction mixture was added with 0.5% phosphoric acid to …
[3] = target: T1, Tyrosine-protein kinase JAK3 (Homo sapiens, UniProt P52333); assay: as §1, with “JAK3” for “JAK1”, “8” for “20”, “MOPS” for “Tris/HCl”, “7.0,” for “7.5,”, “μL the” for “μL”, “scintillation” for “scintillation.”
T1 sequence (P52333 whole entry): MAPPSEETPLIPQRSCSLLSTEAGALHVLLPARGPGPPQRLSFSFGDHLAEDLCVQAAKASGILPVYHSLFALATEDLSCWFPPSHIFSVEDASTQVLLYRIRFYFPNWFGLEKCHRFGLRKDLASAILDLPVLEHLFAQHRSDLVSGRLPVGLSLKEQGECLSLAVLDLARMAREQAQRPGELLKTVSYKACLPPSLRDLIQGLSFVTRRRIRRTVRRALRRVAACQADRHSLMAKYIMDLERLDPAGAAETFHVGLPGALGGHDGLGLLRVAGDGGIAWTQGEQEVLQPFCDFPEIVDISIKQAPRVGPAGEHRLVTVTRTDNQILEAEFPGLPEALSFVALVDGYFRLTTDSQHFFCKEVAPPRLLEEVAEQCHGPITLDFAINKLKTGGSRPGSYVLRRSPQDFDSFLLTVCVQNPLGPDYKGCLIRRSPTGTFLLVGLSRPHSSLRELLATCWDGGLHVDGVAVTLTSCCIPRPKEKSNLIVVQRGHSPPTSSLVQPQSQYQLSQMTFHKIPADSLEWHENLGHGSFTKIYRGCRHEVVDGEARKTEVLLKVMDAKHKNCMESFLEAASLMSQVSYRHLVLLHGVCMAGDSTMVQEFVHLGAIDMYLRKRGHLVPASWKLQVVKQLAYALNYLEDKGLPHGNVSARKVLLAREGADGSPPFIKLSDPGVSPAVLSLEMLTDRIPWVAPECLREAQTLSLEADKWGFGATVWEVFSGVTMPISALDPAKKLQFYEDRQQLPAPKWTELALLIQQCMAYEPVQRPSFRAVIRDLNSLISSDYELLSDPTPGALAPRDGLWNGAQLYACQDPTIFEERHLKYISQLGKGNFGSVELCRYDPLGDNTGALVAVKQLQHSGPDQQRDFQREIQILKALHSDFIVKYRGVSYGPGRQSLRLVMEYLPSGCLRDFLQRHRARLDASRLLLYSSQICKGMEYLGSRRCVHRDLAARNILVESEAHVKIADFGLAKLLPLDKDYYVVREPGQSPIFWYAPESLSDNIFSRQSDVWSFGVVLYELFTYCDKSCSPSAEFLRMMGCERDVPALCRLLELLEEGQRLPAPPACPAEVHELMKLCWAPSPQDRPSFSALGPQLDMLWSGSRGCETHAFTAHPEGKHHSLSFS

[4] = target: Non-receptor tyrosine-protein kinase TYK2 (Homo sapiens, UniProt P29597); assay: as §1, with “TYK2” for “JAK1”, “8” for “20”, “MOPS” for “Tris/HCl”, “7.0,” for “7.5,”, “250” for “500”, “reaction” for “reaction solution”
Chain of Non-receptor tyrosine-protein kinase TYK2 (P29597 whole entry): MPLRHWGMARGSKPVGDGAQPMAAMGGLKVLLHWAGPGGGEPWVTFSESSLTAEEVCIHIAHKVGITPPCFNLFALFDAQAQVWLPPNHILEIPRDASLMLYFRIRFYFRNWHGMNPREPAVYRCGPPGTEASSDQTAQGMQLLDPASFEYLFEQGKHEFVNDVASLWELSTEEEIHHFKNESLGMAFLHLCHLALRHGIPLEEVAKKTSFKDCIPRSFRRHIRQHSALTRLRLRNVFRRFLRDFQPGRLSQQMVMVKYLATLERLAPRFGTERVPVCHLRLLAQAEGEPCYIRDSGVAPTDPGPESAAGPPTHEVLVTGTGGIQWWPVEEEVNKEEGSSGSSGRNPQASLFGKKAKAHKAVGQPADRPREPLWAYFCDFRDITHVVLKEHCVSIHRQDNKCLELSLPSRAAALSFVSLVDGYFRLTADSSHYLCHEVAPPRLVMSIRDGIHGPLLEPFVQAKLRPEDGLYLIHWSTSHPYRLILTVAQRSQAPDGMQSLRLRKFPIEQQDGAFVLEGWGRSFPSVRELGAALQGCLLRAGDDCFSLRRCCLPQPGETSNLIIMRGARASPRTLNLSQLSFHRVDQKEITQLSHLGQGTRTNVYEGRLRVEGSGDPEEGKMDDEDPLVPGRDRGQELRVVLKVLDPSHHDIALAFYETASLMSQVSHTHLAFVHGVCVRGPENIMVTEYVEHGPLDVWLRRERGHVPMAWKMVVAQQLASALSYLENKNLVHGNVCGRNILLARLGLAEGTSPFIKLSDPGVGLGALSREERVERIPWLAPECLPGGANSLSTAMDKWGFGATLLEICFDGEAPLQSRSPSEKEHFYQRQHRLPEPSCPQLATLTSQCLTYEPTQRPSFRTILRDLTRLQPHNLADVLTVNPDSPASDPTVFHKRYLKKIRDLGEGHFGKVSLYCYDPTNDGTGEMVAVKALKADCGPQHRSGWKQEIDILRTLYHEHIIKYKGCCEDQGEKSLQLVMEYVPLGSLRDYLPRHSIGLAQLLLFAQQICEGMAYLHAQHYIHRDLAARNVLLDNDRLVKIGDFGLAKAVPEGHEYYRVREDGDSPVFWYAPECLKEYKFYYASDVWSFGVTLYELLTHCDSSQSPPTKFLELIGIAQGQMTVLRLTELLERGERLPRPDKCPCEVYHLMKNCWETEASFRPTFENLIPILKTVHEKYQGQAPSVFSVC

Chain of Tyrosine-protein kinase JAK1 (P23458 whole entry): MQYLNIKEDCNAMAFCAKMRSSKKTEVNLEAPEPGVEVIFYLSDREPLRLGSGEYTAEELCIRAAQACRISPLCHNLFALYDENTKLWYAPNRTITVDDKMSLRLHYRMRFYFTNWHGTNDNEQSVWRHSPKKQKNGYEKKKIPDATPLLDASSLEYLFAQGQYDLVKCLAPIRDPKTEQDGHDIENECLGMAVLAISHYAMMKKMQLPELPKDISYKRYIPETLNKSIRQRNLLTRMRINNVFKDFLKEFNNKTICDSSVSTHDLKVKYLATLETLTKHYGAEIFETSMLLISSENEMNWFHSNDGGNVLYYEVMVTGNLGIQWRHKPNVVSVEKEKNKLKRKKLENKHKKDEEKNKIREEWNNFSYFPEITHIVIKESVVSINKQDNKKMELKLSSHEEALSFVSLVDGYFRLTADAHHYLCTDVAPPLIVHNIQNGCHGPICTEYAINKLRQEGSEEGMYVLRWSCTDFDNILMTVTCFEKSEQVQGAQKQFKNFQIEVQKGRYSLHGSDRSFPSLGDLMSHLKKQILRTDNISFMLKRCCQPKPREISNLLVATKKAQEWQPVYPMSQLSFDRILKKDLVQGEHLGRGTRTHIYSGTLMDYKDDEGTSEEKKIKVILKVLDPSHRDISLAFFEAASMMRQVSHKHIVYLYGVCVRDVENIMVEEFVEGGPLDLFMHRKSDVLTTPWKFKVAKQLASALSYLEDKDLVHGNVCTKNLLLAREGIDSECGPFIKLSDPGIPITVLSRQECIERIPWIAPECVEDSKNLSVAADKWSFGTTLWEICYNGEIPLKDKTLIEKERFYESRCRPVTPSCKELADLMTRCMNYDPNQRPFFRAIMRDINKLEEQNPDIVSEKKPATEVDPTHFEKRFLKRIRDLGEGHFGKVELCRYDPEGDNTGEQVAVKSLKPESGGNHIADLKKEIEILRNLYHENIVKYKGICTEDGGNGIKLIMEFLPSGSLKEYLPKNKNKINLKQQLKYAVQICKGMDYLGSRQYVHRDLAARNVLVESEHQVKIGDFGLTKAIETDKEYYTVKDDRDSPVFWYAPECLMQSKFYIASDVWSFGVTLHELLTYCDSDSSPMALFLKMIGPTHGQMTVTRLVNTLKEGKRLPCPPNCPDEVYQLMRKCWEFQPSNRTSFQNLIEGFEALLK
Chain of Tyrosine-protein kinase JAK2 (O60674 whole entry): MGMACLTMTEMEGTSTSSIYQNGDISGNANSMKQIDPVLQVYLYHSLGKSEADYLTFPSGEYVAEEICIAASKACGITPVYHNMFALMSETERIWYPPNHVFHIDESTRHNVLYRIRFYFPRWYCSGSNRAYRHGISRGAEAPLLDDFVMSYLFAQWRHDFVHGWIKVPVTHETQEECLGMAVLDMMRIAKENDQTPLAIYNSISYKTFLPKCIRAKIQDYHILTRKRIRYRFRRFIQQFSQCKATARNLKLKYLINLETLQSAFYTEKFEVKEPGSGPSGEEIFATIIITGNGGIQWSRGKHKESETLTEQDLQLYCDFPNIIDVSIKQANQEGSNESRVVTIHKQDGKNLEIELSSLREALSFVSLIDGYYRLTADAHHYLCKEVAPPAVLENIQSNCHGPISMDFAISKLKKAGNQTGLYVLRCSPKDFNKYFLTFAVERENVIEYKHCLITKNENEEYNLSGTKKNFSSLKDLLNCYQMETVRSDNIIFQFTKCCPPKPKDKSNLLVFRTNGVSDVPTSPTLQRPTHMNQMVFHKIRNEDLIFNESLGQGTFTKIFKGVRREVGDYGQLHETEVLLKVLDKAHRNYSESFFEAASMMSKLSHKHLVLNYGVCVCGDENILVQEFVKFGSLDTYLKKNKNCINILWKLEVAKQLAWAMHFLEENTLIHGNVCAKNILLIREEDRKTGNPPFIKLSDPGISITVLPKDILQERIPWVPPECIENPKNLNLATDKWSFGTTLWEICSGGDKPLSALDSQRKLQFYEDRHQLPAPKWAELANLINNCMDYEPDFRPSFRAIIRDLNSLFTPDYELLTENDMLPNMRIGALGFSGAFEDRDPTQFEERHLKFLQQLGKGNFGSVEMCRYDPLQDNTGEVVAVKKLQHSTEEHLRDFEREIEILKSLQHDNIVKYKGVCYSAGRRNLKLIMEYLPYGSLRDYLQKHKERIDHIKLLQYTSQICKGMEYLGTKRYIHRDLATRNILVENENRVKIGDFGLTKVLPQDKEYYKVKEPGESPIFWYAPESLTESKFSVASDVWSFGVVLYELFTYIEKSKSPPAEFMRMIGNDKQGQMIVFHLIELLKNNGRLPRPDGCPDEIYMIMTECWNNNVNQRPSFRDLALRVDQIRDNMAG

Row | Compound | IC50 [1] | IC50 [2] | IC50 [3] | IC50 [4]
1 | N#CC1(C(=O)NC2CC=C(c3cccc4nc(NC(=O)C5CC5)nn34)CC2)CC1 (configuration not stated) | 182 nM | 1380 nM | > 10000 nM | –
2 | CC1(C(=O)NC2CC=C(c3cccc4nc(NC(=O)C5CC5)nn34)CC2)CC1(F)F (configuration not stated) | 209 nM | 1160 nM | > 10000 nM | 729 nM
